Assay results published in patent US8637087B2, “Treatment of interstitial cystitis using (6aR, 10aR)-Δ8-tetrahydrocannabinol-11-OIC acids” (JB Therapeutics Inc., priority 2004, dated 2014).

What was measured:
[1] = tested on: bladder overactivity induced by intravesical administration of acetic acid solution; test: Cystometrograms, acute bladder irritation by acetic acid infusion, i.v. drug; type: in vivo, rats; conditions: for intercontraction interval (ICI), % of the control value: 0.25% acetic acid infusion, vehicle 42.9%; for pressure threshold (PT), % of the control value: vehicle 87.1%
Procedure: (§1) Cystometrograms (CMGs) were performed under urethane anesthesia (1 g/kg s.c.) using a catheter inserted into the bladder through the bladder dome via a midline abdominal incision. Saline was infused at a rate of 0.04 ml/min to elicit repetitive bladder contractions. Effects of intravenous (i.v.) injection of Compound 3a on bladder overactivity induced by either intravesical administration of acetic acid solution or one day treatment with cyclophosphamide were investigated. […] Thus, these compounds can be effective for the treatment of pain and urinary frequency symptoms in patients with painful bladder syndrome/interstitial cystitis.
Saline infusion was performed for 1 to 2 hours prior to drug (or vehicle) administration and control CMGs were recorded. Compound 3a (aka CT-3 or IP-751, dissolved in 30% Cremophor EL saline solution; three concentrations of 1, 3, and 10 mg/kg) or vehicle was administrated intravenously when starting infusion of acetic acid solution (0.25%) into the bladder.
Changes in cystometric parameters such as intercontraction intervals (ICIs), maximum voiding pressure (MVP), pressure threshold (PT) and baseline pressure (BP) were evaluated before and after i.v. administration of Compound 3a or vehicle.
In the vehicle group, 0.25% acetic acid infusion induced significant bladder overactivity, as evidenced by a reduction in ICIs to 42.9% of the control value.

[2] = tested on: cyclophosphamide-induced bladder overactivity; test: Cystometrograms, subacute bladder irritation by cyclophosphamide, i.v. drug; type: in vivo, rats
Procedure: as §1
One day after intraperitoneal injection of cyclophosphamide (CYP, 150 mg/kg), control CMGs were recorded for 1 to 2 hour prior to i.v. administration of Compound 3a or vehicle. See, example i, above. Following administration of Compound 3a, changes in cystometric parameters such as ICIs, MVP, PT and BP were recorded to evaluate the effects of Compound 3a on cyclophosphamide-induced bladder overactivity.
Bladder overactivity indicated by significant ICI reductions was observed one day after CYP injection.

[3] = tested on: bladder hyperactivity induced by infusing acetic acid; test: Instillation of liposomal drug 24 h / 48 h before acetic acid-induced bladder hyperactivity (CMG); type: in vivo, rats; conditions: intravesical, two subjects per group
Procedure: Similarly, instillation of liposomal-Compound 3a was first conducted. Then, 24 hours and 48 hours after instillation, under urethane anesthesia, bladder hyperactivity was induced by infusing acetic acid at the concentration of 0.125% and 025%. Prior to acetic acid infusion, baseline CMG was conducted by saline infusion (0.04 ml/min) to measure intercontraction interval (ICI). A percentage reduction in ICI was measured following acetic acid infusion as an indicator of bladder irritation.
(§2) See, FIGS. 9B and 9C, respectively. Each group consisted of a minimum of seven subjects, except for those of a preliminary dose response study, where two subjects were used in each group. The preliminary dose response study indicated an optimal Compound 3a dose of 0.8 mg/ml. See, FIG. 9A. In these experiments, 1.6 mg/ml was highest concentration of Compound 3a encapsulated into liposomes; higher concentrations apparently compromised formulation stability.

[4] = Encapsulation into liposomes / formulation stability; type: physicochemical
Procedure: as §2

[5] = 10 mg/kg, worded as 'expected to increase'
[6] = CYP-treated rats, after administration

Row | Structure (SMILES) | intercontraction interval (ICI), % of the control value ([1]; 1 mg/kg i.v.) | pressure threshold (PT), % of the control value ([1]; 1 mg/kg i.v.) | intercontraction interval (ICI), % of the control value ([1]; 3 mg/kg i.v.) | pressure threshold (PT), % of the control value ([1]; 3 mg/kg i.v.) | intercontraction interval (ICI), % of the control value ([1]; 10 mg/kg i.v., P<0.05, n=6) | acetic acid-induced bladder overactivity ([1]; 10 mg/kg i.v., without affecting bladder contractions during voiding) | pressure threshold (PT), % of the control value [1, 5] | baseline pressure (BP), change ([1]; i.v., acetic acid infusion) | maximum voiding pressure (MVP), change ([1]; i.v., acetic acid infusion) | CYP-induced bladder overactivity ([2]; 10 mg/kg i.v., CYP-treated rats) | intercontraction interval (ICI) after drug ([2]; 10 mg/kg i.v., one day after CYP 150 mg/kg i.p., control value 3.65 min, vehicle 3.89 vs. 3.94 min) [min] | baseline pressure (BP), change [2, 6] | maximum voiding pressure (MVP), change [2, 6] | pressure threshold (PT), change [2, 6] | optimal dose in preliminary dose response study [3] [mg/mL] | highest concentration encapsulated into liposomes (higher concentrations compromised formulation stability) [4] [mg/mL]
1 | CCCCCCC(C)(C)c1cc(O)c2c(c1)OC(C)(C)[C@@H]1CC=C(C(=O)O)CC21 (stereo partly drawn) [Compound 3a, (6aR,10aR)-Δ^8-THC-DMH-11-oic Acid] | 45.2 % of the control value | 74.1 % of the control value | 51.1 % of the control value | 94.1 % of the control value | 112.4 % of the control value | significantly suppressed | 127.2 % of the control value | No significant changes | No significant changes | significantly suppressed | 5.14 | No significant changes | No significant changes | No significant changes | 0.8 | 1.6
2 | CCCCCCC(C)(C)c1cc(OC(C)=O)c2c(c1)OC(C)(C)[C@@H]1CC=C(C(=O)O)C[C@@H]21 [Compound 3c, (6aR,10aR)-Δ^8-THC-DMH-11-oic Acid Acetate] |  |  |  |  |  |  | 127.2 % of the control value |  |  |  |  |  |  |  |  | 
